In patent US9796704B2, “Substituted quinazolines as receptor-type kinase inhibitors” (Symphony Evolution, Inc., priority 2002, dated 2017):

Experiments:
EGFR = EGFR (Homo sapiens (Human), UniProt P00533); test: EGFR kinase inhibition, luciferase-coupled chemiluminescent assay (LCCA); details: read-out: EGFR IC50
EphA2 = EphA2 (Homo sapiens (Human), UniProt P29317); test: EphA2 kinase inhibition, luciferase-coupled chemiluminescent assay (LCCA); details: read-out: EphA2 IC50
ErbB2 = ErbB2 (Homo sapiens (Human), UniProt P04626); test: ErbB2 kinase inhibition, AlphaScreen; type: biochemical
Experimental: Kinase activity and compound inhibition are investigated using one or more of the three assay formats described below. The ATP concentrations are selected near its Michaelis-Menten constant (KM) for each individual kinase. Dose-response experiments are performed at ten different inhibitor concentrations in a 384-well plate format. […] These parameters are obtained by nonlinear regression algorithm built into ActivityBase software (available from ID Business Solutions Ltd., of Guildford, Surrey, UK). ^33P Phosphoryl Transfer Assay (Radiometric)

KDR = KDR (Homo sapiens (Human), UniProt P35968); test: KDR kinase inhibition, luciferase-coupled chemiluminescent assay (LCCA); details: read-out: KDR IC50
Experimental: Kinase activity and compound inhibition are investigated using one or more of the three assay formats described below. The ATP concentrations are selected near its Michaelis-Menten constant (KM) for each individual kinase. Dose-response experiments are performed at ten different inhibitor concentrations in a 384-well plate format. […] Typically H is close to unity.
In the LCCA assays, kinase activity is measured by the ATP consumption that is accurately measured by luciferase-coupled chemiluminescence. Greiner 384-well white clear bottom medium binding plates are used for LCCA. Briefly the kinase reaction is initiated by mixing compounds, ATP and kinases in a 20 μL volume. At the end of the kinase reaction, a 20 μL luciferase-luciferin mix is added and the chemiluminescent signal is read on a Wallac Victor^2 reader.

EphB4 = EphB4 (Homo sapiens (Human), UniProt P54760); test: EphB4 kinase inhibition, 33P phosphoryl transfer assay (radiometric); type: biochemical
Sequence of EphB4 (P54760 605-890): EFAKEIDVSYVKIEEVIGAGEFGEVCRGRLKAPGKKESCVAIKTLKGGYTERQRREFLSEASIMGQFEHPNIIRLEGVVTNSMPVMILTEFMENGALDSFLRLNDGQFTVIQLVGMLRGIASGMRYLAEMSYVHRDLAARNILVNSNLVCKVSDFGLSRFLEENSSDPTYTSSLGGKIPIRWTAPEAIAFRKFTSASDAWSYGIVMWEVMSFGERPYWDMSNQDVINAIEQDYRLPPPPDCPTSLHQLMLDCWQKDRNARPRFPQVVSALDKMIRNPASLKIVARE

Sequence of KDR (P35968 807-1356): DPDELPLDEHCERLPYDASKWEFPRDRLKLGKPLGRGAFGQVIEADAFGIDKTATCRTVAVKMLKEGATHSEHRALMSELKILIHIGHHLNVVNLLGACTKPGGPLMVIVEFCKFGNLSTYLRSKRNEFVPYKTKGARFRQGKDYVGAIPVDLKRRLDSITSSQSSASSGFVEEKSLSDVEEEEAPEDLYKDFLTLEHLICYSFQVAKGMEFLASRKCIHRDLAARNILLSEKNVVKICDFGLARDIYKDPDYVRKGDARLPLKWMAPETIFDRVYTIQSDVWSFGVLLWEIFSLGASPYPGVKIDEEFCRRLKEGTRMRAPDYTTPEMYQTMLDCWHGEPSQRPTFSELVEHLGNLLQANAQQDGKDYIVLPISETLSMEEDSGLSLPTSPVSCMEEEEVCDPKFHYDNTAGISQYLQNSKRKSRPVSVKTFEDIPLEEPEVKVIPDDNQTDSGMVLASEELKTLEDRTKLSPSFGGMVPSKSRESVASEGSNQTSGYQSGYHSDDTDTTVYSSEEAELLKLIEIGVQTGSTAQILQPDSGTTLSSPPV
Sequence of EphA2 (P29317 598-890): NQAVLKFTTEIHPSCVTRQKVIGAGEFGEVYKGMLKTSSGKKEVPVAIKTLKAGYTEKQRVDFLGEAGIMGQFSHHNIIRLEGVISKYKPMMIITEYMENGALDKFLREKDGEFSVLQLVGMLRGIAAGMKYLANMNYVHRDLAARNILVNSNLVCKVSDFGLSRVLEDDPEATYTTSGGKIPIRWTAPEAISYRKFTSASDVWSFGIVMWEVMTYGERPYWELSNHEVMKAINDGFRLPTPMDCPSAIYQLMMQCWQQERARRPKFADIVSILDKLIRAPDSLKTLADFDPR

Molecule | IC50 (EGFR) | IC50 (EphA2) | IC50 (ErbB2) | IC50 (KDR) | IC50 (EphB4)
CCN1CCC(c2nc(COc3cc4ncnc(Nc5ccc(Cl)c(Cl)c5)c4cc3OC)no2)CC1 [Example 238, N-(3,4-dichlorophenyl)-7-({[5-(1-ethylpiperidin-4-yl)-1,2,4-oxadiazol-3-yl]methyl}oxy)-6-(methyloxy)quinazolin-4-amine] | < 50 nM | < 50 nM | < 50 nM | < 50 nM | < 50 nM
COc1cc2c(Nc3ccc(Cl)c(Cl)c3)ncnc2cc1OCc1nc([C@@H]2CCCN2)no1 [Example 243, N-(3,4-dichlorophenyl)-6-(methyloxy)-7-[({3-[(2S)-pyrrolidin-2-yl]-1,2,4-oxadiazol-5-yl}methyl)oxy]quinazolin-4-amine] | < 50 nM | < 50 nM | < 50 nM | < 50 nM | < 50 nM
COc1cc2c(Nc3ccc(Cl)c(Cl)c3)ncnc2cc1OCc1csc([C@@H]2CCCN2)n1 [Example 244, N-(3,4-dichlorophenyl)-6-(methyloxy)-7-[({2-[(2S)-pyrrolidin-2-yl]-1,3-thiazol-4-yl}methyl)oxy]quinazolin-4-amine] | < 50 nM | < 50 nM | < 50 nM | < 50 nM | < 50 nM
COc1cc2c(Nc3ccc(Cl)c(Cl)c3)ncnc2cc1OCc1csc(COC(=O)c2ccccc2)n1 [Example 245, [4-({[4-[(3,4-dichlorophenyl)amino]-6-(methyloxy)quinazolin-7-yl]oxy}methyl)-1,3-thiazol-2-yl]methyl benzoate] | < 50 nM | < 50 nM | < 50 nM | < 50 nM | < 50 nM
N-(3,4-dichlorophenyl)-6-(methyloxy)-7-({[3-(4-methylpiperazin-1-yl)-1,2,4-oxadiazol-5-yl]methyl}oxy)quinazolin-4-amine [Example 33] | < 50 nM | 50 to 1000 nM | 50 to 1000 nM | < 50 nM | < 50 nM
N-(3,4-dichlorophenyl)-6-(methyloxy)-7-{[(5-methyl-4,5,6,7-tetrahydro[1,3]thiazolo[5,4-c]pyridin-2-yl)methyl]oxy}quinazolin-4-amine hydrochloride [Example 34] | < 50 nM | 50 to 1000 nM | < 50 nM | 50 to 1000 nM | 50 to 1000 nM
N-(3,4-dichlorophenyl)-7-{[(5-ethyl-4,5,6,7-tetrahydro[1,3]thiazolo[5,4-c]pyridin-2-yl)methyl]oxy}-6-(methyloxy)quinazolin-4-amine hydrochloride [Example 35] | < 50 nM | 50 to 1000 nM | 50 to 1000 nM | < 50 nM | 50 to 1000 nM

Continued, values first:

IC50 (EGFR) | IC50 (EphA2) | IC50 (ErbB2) | IC50 (KDR) | IC50 (EphB4) | Molecule
< 50 nM | < 50 nM | < 50 nM | < 50 nM | < 50 nM | COc1cc2c(Nc3ccc(Cl)c(Cl)c3)ncnc2cc1OCc1csc(N2CCOCC2)n1 [Example 204, N-(3,4-dichlorophenyl)-6-(methyloxy)-7-{[(2-morpholin-4-yl-1,3-thiazol-4-yl)methyl]oxy}quinazolin-4-amine]
< 50 nM | 50 to 1000 nM | < 50 nM | < 50 nM | < 50 nM | COc1cc2c(Nc3ccc(Cl)c(Cl)c3)ncnc2cc1OCc1nc(-c2ccc(C(C)(C)C)cc2)no1 [Example 226, N-(3,4-dichlorophenyl)-7-[({3-[4-(1,1-dimethylethyl)phenyl]-1,2,4-oxadiazol-5-yl}methyl)oxy]-6-(methyloxy)quinazolin-4-amine]
< 50 nM | < 50 nM | < 50 nM | < 50 nM | < 50 nM | COc1cc2c(Nc3ccc(Cl)c(Cl)c3)ncnc2cc1OCc1ccc2nc(C(F)(F)F)cc(Cl)c2c1 [Example 236, 7-({[4-chloro-2-(trifluoromethyl)quinolin-6-yl]methyl}oxy)-N-(3,4-dichlorophenyl)-6-(methyloxy)quinazolin-4-amine]
< 50 nM | < 50 nM | < 50 nM | < 50 nM | < 50 nM | COc1cc2c(Nc3ccc(Cl)c(Cl)c3)ncnc2cc1OCCC1CCCN1C (stereo not shown) [Example 237, N-(3,4-dichlorophenyl)-6-(methyloxy)-7-{[2-(1-methylpyrrolidin-2-yl)ethyl]oxy}quinazolin-4-amine]
